In ChEMBL document CHEMBL1201862, “PubChem BioAssay data set” (2004):
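Five compound concentrations were applied to cells in 96-well plates for 48 hours; endpoints were derived by simple linear interpolation of the resulting dose-response curve. GI50 is the concentration that inhibits growth by half.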 Calls of active or inactive are those of the source. Rule as the data show it: active = GI50 up to about 1.1 µM and inactive = higher.

Legend:
Assay in all cases: DTP human tumour cell line panel, 48 h
[1] = test system: MDA-N
[2] = test system: T47D
[3] = test system: MDA-MB-435
[4] = test system: 786-0
[5] = test system: LXFL 529
[6] = test system: MDA-MB-231
[7] = test system: DU-145
[8] = test system: RXF 631
[9] = test system: BT-549

Measured: GI50

CC(C)N1CSC(=S)N(Cc2ccccc2)C1
inactive: [1] 2.42 µM | [2] 4.29 µM | [3] 3.84 µM

COc1ccc(NC(=O)C(=O)C(C(=O)c2ccccc2)C2OC(=O)c3ccccc32)c([N+](=O)[O-])c1 (stereo not drawn)
inactive: [4] > 100 µM | [5] > 100 µM

O=C(NN1C(=O)C(Cl)C1c1ccc([N+](=O)[O-])cc1)c1ccccc1O (stereo not drawn)
inactive: [5] > 100 µM

Nc1nc2cc(COc3ccc(C(=O)O)cc3)ccc2nc1-c1ccccc1
inactive: [6] > 10 µM | [1] > 10 µM | [7] > 10 µM | [2] > 10 µM | [3] > 10 µM

CCOC(=O)C1=C(C)N(NC(N)=O)C2(O)CCCC(=O)C12C (stereo not drawn)
inactive: [5] > 100 µM | [8] > 100 µM

CCOC(=O)C1=C(C)N(c2ccc(OC)cc2)C2(O)C=CC(O)=C3C(=O)c4ccccc4C(=O)C312 (stereo not drawn)
inactive: [6] 14.3 µM | [1] 8.61 µM | [7] 14.4 µM | [9] 14 µM | [2] 12.5 µM | [3] 4.2 µM

CC1(c2sccc2Cl)CC(c2sccc2Cl)=C(C#N)C(=C(C#N)C#N)N1 (stereo not drawn)
inactive: [6] 21.9 µM | [1] 17.3 µM | [7] 16 µM | [4] 18.4 µM | [9] 17.8 µM | [2] 14.2 µM | [3] 22 µM

CC(=O)NNc1nc(C)c(C(=O)NNC(=O)C(=O)Nc2ccc([N+](=O)[O-])cc2[N+](=O)[O-])s1
inactive: [5] 93.1 µM | [8] 68.9 µM
